Measurements: patent publication US20130196984A1, “3-AMINO-5-PHENYL-56-DIHYDRO-2H-[1,4]OXAZINES” (Siena Biotech S.p.A., priority 2009, published 2013)
Where a name gives a salt, the structure may show the parent alone.

What was measured:
BACE2 [1] = target: T1, BACE2 (Homo sapiens, UniProt Q9Y5Z0); assay: Assay A: binding studies using SPR based methods, immobilised BACE2; conditions: CM5 chip, immobilised BACE2 enzyme ectodomain, acetate buffer pH 4.6, 4% DMSO
T1 construct: BACE2 enzyme ectodomain (derived from plasmid “pET17b-T7-hu proBACE2”); T7 (N); made in house
T1 sequence (Q9Y5Z0 63-473 limits assumed): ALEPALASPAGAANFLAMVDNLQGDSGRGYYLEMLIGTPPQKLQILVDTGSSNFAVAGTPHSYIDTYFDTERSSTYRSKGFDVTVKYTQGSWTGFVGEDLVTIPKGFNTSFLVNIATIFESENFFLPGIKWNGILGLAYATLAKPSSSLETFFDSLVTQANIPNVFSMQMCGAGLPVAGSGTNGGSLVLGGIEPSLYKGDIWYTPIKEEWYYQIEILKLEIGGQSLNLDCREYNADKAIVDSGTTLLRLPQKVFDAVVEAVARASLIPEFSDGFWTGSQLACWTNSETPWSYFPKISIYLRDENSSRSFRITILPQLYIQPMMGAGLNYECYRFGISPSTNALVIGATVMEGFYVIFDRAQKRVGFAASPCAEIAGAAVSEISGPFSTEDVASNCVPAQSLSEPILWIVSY

BACE2 [2] = target: T2, BACE2 (Rattus norvegicus, UniProt Q6IE75); assay: Assay for BACE inhibition by measuring cellular TMEM27 cleavage; format: cell-based; conditions: INS-TMEM27 (INS1e-derived) cells, ELISA of shed human TMEM27 in supernatant;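 further: inhibitor added 2 h before doxycycline-induced hTMEM27 expression, supernatant collected after further 46 h, endogenous BACE2 activity read as reduced TMEM27 shedding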
T2 construct: endogenous cellular BACE2 in the Ins1e rat cell line; endogenous in cells; host or cells: INS-TMEM27 (INS1e-derived rat cell line with doxycycline-inducible full-length hTMEM27)
T2 sequence (Q6IE75 63-514): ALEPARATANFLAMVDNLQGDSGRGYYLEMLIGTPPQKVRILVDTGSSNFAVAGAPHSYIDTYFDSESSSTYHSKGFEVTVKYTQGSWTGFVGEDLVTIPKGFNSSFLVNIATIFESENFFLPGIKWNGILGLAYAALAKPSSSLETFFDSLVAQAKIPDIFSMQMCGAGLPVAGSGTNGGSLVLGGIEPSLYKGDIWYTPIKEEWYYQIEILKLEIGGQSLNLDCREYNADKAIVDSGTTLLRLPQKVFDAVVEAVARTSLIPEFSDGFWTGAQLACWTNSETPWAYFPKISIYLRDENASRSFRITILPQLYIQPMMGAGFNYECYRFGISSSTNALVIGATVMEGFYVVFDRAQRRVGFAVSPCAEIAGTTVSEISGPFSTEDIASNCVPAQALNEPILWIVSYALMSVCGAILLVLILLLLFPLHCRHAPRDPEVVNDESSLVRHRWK

BACE1 [3] = target: T3, BACE1 (Homo sapiens, UniProt P56817); assay: Cellular Abeta-lowering assay; format: cell-based; design: endogenous in cells; host or cells: HEK293 stably transfected with human APP695 wt; conditions: HEK293 cells stably transfected with human APP wt (APP695), Aβ40 ELISA of supernatant after 18-20 hrs
BACE1 [4] = target: T3, BACE1; assay: Assay A: binding studies using SPR based methods, immobilised BACE1; design: 6his-tagged full length BACE 1 expressed in SF9 cells; 6His; made in house; host or cells: SF9 insect cells; conditions: CM5 chip, immobilised 6his-tagged full length BACE 1, acetate buffer pH 4.6, 4% DMSO;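 further: KD from a 1:1 kinetic fit (koff/kon) of real-time association and dissociation curves, or for fast binders from end-of-association equilibrium responses plotted against log concentration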

T3 sequence (P56817 46-501): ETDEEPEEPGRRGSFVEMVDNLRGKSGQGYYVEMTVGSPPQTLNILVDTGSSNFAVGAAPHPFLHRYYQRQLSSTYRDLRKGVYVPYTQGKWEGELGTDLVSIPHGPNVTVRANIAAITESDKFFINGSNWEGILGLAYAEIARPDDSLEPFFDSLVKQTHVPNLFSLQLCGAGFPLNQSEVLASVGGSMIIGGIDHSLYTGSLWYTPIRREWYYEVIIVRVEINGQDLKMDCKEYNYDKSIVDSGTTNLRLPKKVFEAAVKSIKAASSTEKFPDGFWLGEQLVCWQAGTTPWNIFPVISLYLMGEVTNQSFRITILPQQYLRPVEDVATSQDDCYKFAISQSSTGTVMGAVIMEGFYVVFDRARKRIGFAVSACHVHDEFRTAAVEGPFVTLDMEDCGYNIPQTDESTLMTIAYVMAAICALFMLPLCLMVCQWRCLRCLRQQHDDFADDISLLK

Kd (BACE2 [1]) [µM]	IC50 (BACE2 [2]) [µM]	IC50 (BACE1 [3]) [µM]	Kd (BACE1 [4]) [µM]	Structure (SMILES)
0.025	0.039	0.003	0.016	C[C@@]1(c2cc(NC(=O)c3ccc(C#N)cn3)ccc2F)COCC(N)=N1 [Example 72, 5-cyano-pyridine-2-carboxylic acid [3-((R)-5-amino-3-methyl-3,6-dihydro-2H-[1,4]oxazin-3-yl)-4-fluoro-phenyl]-amide hydrochloride]
0.051	0.105	0.004	0.009	C[C@@]1(c2cc(NC(=O)c3ccc(OC(F)F)cn3)ccc2F)COCC(N)=N1 [Example 73, 5-difluoromethoxy-pyridine-2-carboxylic acid [3-((R)-5-amino-3-methyl-3,6-dihydro-2H-[1,4]oxazin-3-yl)-4-fluoro-phenyl]-amide hydrochloride]
0.002	1.35	0.004	0.01	C[C@@]1(c2cc(NC(=O)c3ncc(Cl)cc3F)ccc2F)COCC(N)=N1 [Example 74, 5-Chloro-3-fluoro-pyridine-2-carboxylic acid [3-((R)-5-amino-3-methyl-3,6-dihydro-2H-[1,4]oxazin-3-yl)-4-fluoro-phenyl]-amide hydrochloride]
0.045	0.084	0.7	2.27	C[C@@]1(c2cc(NC(=O)c3ncco3)ccc2F)COCC(N)=N1 [Example 80, oxazole-2-carboxylic acid [3-((R)-5-amino-3-methyl-3,6-dihydro-2H-[1,4]oxazin-3-yl)-4-fluoro-phenyl]-amide]
0.256	0.21	0.047	0.102	C[C@@]1(c2cc(NC(=O)c3cnc(C(F)(F)F)cn3)ccc2F)COCC(N)=N1 [Example 81, 5-trifluoromethyl-pyrazine-2-carboxylic acid [3-((R)-5-amino-3-methyl-3,6-dihydro-2H-[1,4]oxazin-3-yl)-4-fluoro-phenyl]-amide formate]
0.113	0.14	0.046	0.129	C[C@@]1(c2cc(NC(=O)c3cnc(C(F)(F)F)cn3)ccc2F)COCC(N)=N1 [Example 82, 5-trifluoromethyl-pyrazine-2-carboxylic acid [3-((R)-5-amino-3-methyl-3,6-dihydro-2H-[1,4]oxazin-3-yl)-4-fluoro-phenyl]-amide formate]
0.276	0.13	0.3	0.916	C[C@@]1(c2cc(NC(=O)C(F)(F)C(F)F)ccc2F)COCC(N)=N1 [Example 83, N-[3-((R)-5-amino-3-methyl-3,6-dihydro-2H-[1,4]oxazin-3-yl)-4-fluoro-phenyl]-2,2,3,3-tetrafluoro-propionamide formate]
0.077	0.083	0.14	0.261	COCC(=O)Nc1ccc(F)c([C@]2(C)COCC(N)=N2)c1 [Example 84, N-[3-((R)-5-amino-3-methyl-3,6-dihydro-2H-[1,4]oxazin-3-yl)-4-fluoro-phenyl]-2-methoxy-acetamide formate]
3.45	0.56	2.76	> 10	CC(C)C(=O)Nc1ccc(F)c([C@]2(C)COCC(N)=N2)c1 [Example 88, N-[3-((R)-5-amino-3-methyl-3,6-dihydro-2H-[1,4]oxazin-3-yl)-4-fluoro-phenyl]-isobutyramide formate]
0.15	1.22	0.22	0.148	CC(F)(F)C(=O)Nc1ccc(F)c([C@]2(C)COCC(N)=N2)c1 [Example 90, N-[3-((R)-5-amino-3-methyl-3,6-dihydro-2H-[1,4]oxazin-3-yl)-4-fluoro-phenyl]-2,2-difluoro-propionamide formate]
1.14	0.095	1.46	0.994	C[C@@]1(c2cc(NC(=O)C(F)F)ccc2F)COCC(N)=N1 [Example 91, N-[3-((R)-5-amino-3-methyl-3,6-dihydro-2H-[1,4]oxazin-3-yl)-4-fluoro-phenyl]-2,2-difluoro-acetamide formate]
